Reference: patent US20260023070A1, “OPTOGENETIC ALPHA-SYNUCLEIN AGGREGATION SYSTEM-BASED COMPOUND SCREENING PLATFORM IN PD-hiPSC-mDA NEURONS” (The Johns Hopkins University, priority 2022, published 2026)

Experiments:
tau-PFF injected mice = experiment: tau-PFF injected mice, AT8 immunofluorescence in dentate gyrus; type: in vivo
Method: To find in vivo efficacy in a pilot exponential set and set a drug dosage, an in vivo experiment with the tau-PFF injected mice with DMSO or BAG treatment ([…]) was performed. Intraperitoneal injection of different concentrations (0, 5, 10 mg/kg) of BAG was given for one month, once every two days. Immunofluorescence staining results of AT8 in the dentate gyrus of C57bl/6j mice (3 per group) after injection of K18-tau PFF (5 μg/kg) into the hippocampus for two months was performed (data not shown).

opto-α-syn SH-SY5Y cells = experiment: OASIS-based high-content imaging assay of light-induced α-syn aggregation (5G4 staining, Aggregates Induction Score); type: cell-based, human
Method: The opto-α-syn expressing SH-SY5Y cells were seeded in 96-well black flat bottom imaging microplates (Falcon) at 30,000 cells per well in 100 μL of complete media using E1-ClipTip electronic multichannel pipette (Thermo Fisher Scientific) and incubated in 37° C. and 5% CO2 humidified incubator. After 18 h of incubation, 10 μL of 10 μM compounds (column 2 to 10) or 1% DMSO (column 1 and 12) were added (final concentration of DMSO is 0.1%). In order to induce aggregations, the plates were illuminated with blue light (26 μW/mm^2) on customized blue light illumination 96-well plates for 2 h. Afterward, cells were fixed in 4% paraformaldehyde (PFA) for 15 min and stained with the aggregated-α-syn antibody (5G4) after permeabilization with 0.1% Triton X-100/0.5% BSA/PBS solution. […] To analyze images, the automated aggregation quantification algorithm and cell counting algorithm in the form of macro are developed using ImageJ software. Briefly, the algorithm includes the inversion, subtracting background, threshold selection, analyzing particles with ranged size and circularity. The Aggregates Induction Score (AIS) is calculated using, the following equation: […]
where N^agg is the number of aggregates, ^Ntotal is the number of total cells. The AIS in each well is normalized by the AIS in positive control which is set as 1.0. […] The hit selection strategy was based on calculated AIS; hits were defined as AIS<0.5. […] Two independent experiments were performed, and total 10 images per well are analyzed to calculate AIS.
As illustrated in FIGS. 8A-8E, high-content imaging screening with the optogenetic α-syn aggregation system was performed, following the schematic representation of the process of high-content imaging (HCI) screening with optogenetics-assisted method of alpha-synuclein aggregation induction system (OASIS) (FIG. 8A). SH-SY5Y cells expressing opto-α-syn were in dark or exposed to blue light (26 μW/mm^2 at 470 nm, 1 Hz, 1 s) for 1.5 h under 96-well plate culture conditions, and then immunostained with 5G4 antibody. The equation of Aggregates Induction Score (AIS) (FIG. 8B) was used for the calculation of Z′-factor for HCI screening with OASIS (FIG. 8C). […] Arrow represents the degree of separation (Z′-factor) between light-illuminated and darkness controls. […] Detailed information of numbered compounds was described in Table 1. One-way ANOVA followed by Dunnett's post hoc test (n=10 or 20, 5 or 10 images each from two independent experiments). *P<0.05, **P<0.01, ***P<0.001, ****P<0.0001.
As illustrated in FIGS. 9A-9B, high-content imaging screening with the optogenetic α-syn aggregation system was performed. The measurement of 5G4^+ aggregates in opto-mock or opto-α-syn SH-SY5Y neuronal cells was assessed. Cells were in dark or exposed to blue light (26 μW/mm^2 at 470 nm, 1 Hz, 1 s) for 1.5 h, and then immunostained with 5G4 antibody. […] Images were converted to grayscale, and a threshold was adjusted to exclude the background based on the size of particles. Once the value of threshold was determined, all the images were applied with the fixed threshold, and then the number of aggregates was measured (FIG. 9A). Number of DAPI from the original images were counted (FIG. 9B). Representative images of opto-α-syn SH-SY5Y neuronal cells treated with 19 compounds under 24-well plate culture conditions were imaged. SH-SY5Y cells expressing opto-α-syn were in dark or exposed to blue light (34 μW/mm^2 at 470 nm, 1 Hz, 0.5 s) for 1.5 h, and then immunostained with 5G4 antibody.

## Cc1nc2cnc3ccc(C#Cc4cccnc4)cc3c2n1-c1ccc(C(C)(C)C#N)cc1 [BAG 956]
tau-PFF injected mice; 10 μg/kg dosage as printed
  toxicity: without noticeable toxicity
tau-PFF injected mice; intraperitoneal, once every two days for one month, 5 and 10 mg/kg
  levels of the AT8+ phosphorylated-tau: significantly decreased
opto-α-syn SH-SY5Y cells; two independent experiments, 24-well culture conditions, blue light stimulation
  AIS compared to blue light-illuminated DMSO control: significant decrease
opto-α-syn SH-SY5Y cells; validation of 19 hits, 24-well plates, blue light, AIS normalized to positive control (blue light, DMSO) set as 1.0
  AIS, aggregates induction score: 0.34
